For two compounds, IC50 results are on record in patent publication US20250236610A1, “3-[(1H-PYRAZOL-4-YL)OXY]PYRAZIN-2-AMINE COMPOUNDS AS HPK1 INHIBITOR AND USE THEREOF” (BeiGene, Ltd., priority 2020, published 2025).

The target in assay [1] is HPK1 kinase (aa1-346, Life Technologies) (Homo sapiens (Human), UniProt Q92918). In words: HPK Kinase Activity Assay at 1 mM ATP (TR-FRET). The class given is biochemical. To be noted: HPK1 kinase 40 nM, 0.5 μM STK1 substrate, read-out: Enzymatic activity IC50. Background: TR-FRET usually uses a lanthanide donor and a delayed reading to cut background.
HPK1 kinase (aa1-346, Life Technologies), sequence (Q92918 1-346): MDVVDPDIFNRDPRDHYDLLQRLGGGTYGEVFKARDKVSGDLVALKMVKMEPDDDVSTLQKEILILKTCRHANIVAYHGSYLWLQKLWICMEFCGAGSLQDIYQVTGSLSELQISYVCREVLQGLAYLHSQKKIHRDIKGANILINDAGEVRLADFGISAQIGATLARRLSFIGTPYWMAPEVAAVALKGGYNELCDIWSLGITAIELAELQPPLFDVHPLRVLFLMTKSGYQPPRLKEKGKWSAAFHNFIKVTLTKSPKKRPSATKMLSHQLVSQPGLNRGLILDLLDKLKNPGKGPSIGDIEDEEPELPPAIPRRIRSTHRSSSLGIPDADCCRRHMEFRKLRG
The subject of assay [2] is pSLP76(S376) level in Jurkat cell line. In words: Cellular pSLP76(S376) HTRF Assay. The class given is cell-based. To be noted: Homo sapiens, Jurkat cells, 2 h compound treatment, 0.05 μg/mL anti-human CD3 (OKT3) 30 min.

As a reminder, the IC50 is the concentration needed to halve the response being measured. On to `C[C@@H]1COCCN1c1cc(-c2cnc(N)c(Oc3cnn(C4CCN(C)CC4)c3)n2)cc([C@@]2(O)CCO[C@@H]2C)c1` (single isomer, unassigned) [Example A95A], for which the IC50 in assay [1] was determined as 44 nM.
Consider `C[C@@H]1COCCN1c1cc(-c2cnc(N)c(Oc3cnn(C4CCN(C)CC4)c3)n2)cc([C@]2(O)CCO[C@H]2C)c1` (single isomer, unassigned) [Example A95B], for which the IC50 in assay [1] was 4.5 nM; in assay [2], 68 nM.
